One may read the IC50 as the midpoint of a concentration-inhibition curve.

For 17 molecules, IC50 results are on record in patent publication US10435361B2, “Kinase inhibitors” (Topivert Pharma Limited, priority 2013, dated 2019).

The assay has as its system PBMCs. In words: LPS-induced TNFα/IL-8 release in PBMC cells. Particulars: Homo sapiens, assay (b), read-out: IC50 Values for Inhibition of Cytokine Release PBMCs IL-8. Format: cell-based. As to the method:
Peripheral blood mononuclear cells (PBMCs) from healthy subjects are separated from whole blood using a density gradient (Lymphoprep, Axis-Shield Healthcare). The PBMCs are seeded in 96 well plates and treated with compounds at the desired concentration for 2 hours before addition of 1 ng/mL LPS (Escherichia Coli 0111:B4 from Sigma Aldrich) for 24 hours under normal tissue culture conditions (37° C., 5% CO2). The supernatant is harvested for determination of IL-8 and TNFα concentrations by sandwich ELISA (Duo-set, R&D systems) and read on the fluorescence microplate reader (Varioskan® Flash, ThermoFisher Scientific).
Consider `COc1cc(Nc2cc(Oc3ccc(NC(=O)Nc4cc(C(C)(C)C)cc(NS(C)(=O)=O)c4OC)c4ccccc34)ccn2)cc(C(=O)NCCN2CCCC2)c1` [83(d), 3-((4-((4-(3-(5-(tert-butyl)-2-methoxy-3-(methylsulfonamido)phenyl)ureido)naphthalen-1-yl)oxy)pyridin-2-yl)amino)-5-methoxy-N-(2-(pyrrolidin-1-yl)ethyl)benzamide], for which the IC50 worked out at 12.1 nM.
Turning to `COc1cc(Nc2cc(Oc3ccc(NC(=O)Nc4cc(C(C)(C)C)cc(NS(C)(=O)=O)c4OC)c4ccccc34)ccn2)cc(C(=O)NCCN2CCCCC2)c1` [83(e), 3-((4-((4-(3-(5-(tert-butyl)-2-methoxy-3-(methylsulfonamido)phenyl)ureido)naphthalen-1-yl)oxy)pyridin-2-yl)amino)-5-methoxy-N-(2-(piperidin-1-yl)ethyl)benzamide], the IC50 worked out at 8 nM.
As to `COc1c(NC(=O)Nc2ccc(Oc3ccnc(Nc4ccccc4)c3)c3ccccc23)cc(C(C)(C)C)cc1NS(=O)(=O)N1CCOCC1` [83(f), N-(5-(tert-butyl)-2-methoxy-3-(3-(4-((2-(phenylamino)pyridin-4-yl)oxy)naphthalen-1-yl)ureido)phenyl)morpholine-4-sulfonamide], the IC50 was 13.1 nM.
The result for `COCCOCCOCCOc1cc(Nc2cc(Oc3ccc(NC(=O)Nc4cc(C(C)(C)C)cc(C(=O)NCCN)c4OC)c4ccccc34)ccn2)cc(OC)c1` [83(g), N-(2-aminoethyl)-5-(tert-butyl)-2-methoxy-3-(3-(4-((2-((3-methoxy-5-(2-(2-(2-methoxy-ethoxy)ethoxy)ethoxy)phenyl)amino)pyridin-4-yl)oxy)naphthalen-1-yl)ureido)benzamide] reads 7.3 nM; that for `COc1c(NC(=O)Nc2ccc(Oc3ccnc(Nc4ccccc4)c3)c3ccccc23)cc(C(C)(C)C)cc1C(=O)NC1CCOCC1` [84(a), 3-[[4-[(2-Anilino-4-pyridyl)oxy]-1-naphthyl]carbamoylamino]-5-tert-butyl-2-methoxy-N-tetrahydropyran-4-yl-benzamide], 12.4 nM.
Regarding `COc1c(NC(=O)Nc2ccc(Oc3ccnc(Nc4ccccc4)c3)c3ccccc23)cc(C(C)(C)C)cc1C(=O)NC1CCN(C)CC1` [84(b), 3-[[4-[(2-Anilino-4-pyridyl)oxy]-1-naphthyl]carbamoylamino]-5-tert-butyl-2-methoxy-N-(1-methyl-4-piperidyl)benzamide], the IC50 turned out to be 9.1 nM.
For `COc1c(NC(=O)Nc2ccc(Oc3ccnc(Nc4ccccc4)c3)c3ccccc23)cc(C(C)(C)C)cc1C(=O)N[C@@H]1CCOC1` [84(c), 3-[[4-[(2-Anilino-4-pyridyl)oxy]-1-naphthyl]carbamoylamino]-5-tert-butyl-2-methoxy-N-[(3R)-tetrahydrofuran-3-yl]benzamide] the value was 21.8 nM.
For `COc1cc(Nc2cc(Oc3ccc(NC(=O)Nc4cc(C(C)(C)C)cc(NS(C)(=O)=O)c4OC)c4ccccc34)ccn2)cc(OCCOCCOCCO)c1` [84(e), 1-[5-tert-Butyl-3-(methanesulfonamido)-2-methoxy-phenyl]-3-[4-[[2-[3-[2-[2-(2-hydroxyethoxy)ethoxy]ethoxy]-5-methoxy-anilino]-4-pyridyl]oxy]-1-naphthyl]urea] the value was 1.3 nM; for `COc1cc(CO)cc(Nc2cc(Oc3ccc(NC(=O)Nc4cc(C(C)(C)C)cc(NS(C)(=O)=O)c4OC)c4ccccc34)ccn2)c1` [84(f), 1-[5-tert-Butyl-3-(methanesulfonamido)-2-methoxyphenyl]-3-[4-[[2-[3-(hydroxymethyl)-5-methoxyanilino]-4-pyridyl]oxy]-naphthyl]urea], 13.5 nM.
For `C#Cc1cc(Nc2cc(Oc3ccc(NC(=O)Nc4cc(C(C)(C)C)cc(NS(C)(=O)=O)c4OC)c4ccccc34)ccn2)cc(C(=O)NCCN2CCN(C)CC2)c1` [85(c), 3-[[4-[[4-[[5-tert-Butyl-3-(methanesulfonamido)-2-methoxyphenyl]-carbamoylaminol]-1-naphthyl]oxy]-2-pyridyl]amino]-5-ethynyl-N-[2-(4-methylpiperazin-1-yl)ethyl]benzamide] the value was 4.6 nM; for `COc1cc(Nc2nccc(Oc3ccc(NC(=O)Nc4cc(C(C)(C)C)cc(NS(C)(=O)=O)c4OC)c4ccccc34)n2)cc(C(=O)NCCN2CCN(C)CC2)c1` [85(e), 3-[[4-[[4-[[5-tert-Butyl-3-(methanesulfonamido)-2-methoxyphenyl]-carbamoylamino]-1-naphthyl]oxy]pyrimidin-2-yl]amino]-5-methoxy-N-[2-(4-methylpiperazin-1-yl)ethyl]benzamide], 1.7 nM.
Regarding `COc1cc(Nc2nccc(Oc3ccc(NC(=O)Nc4cc(C(C)(C)C)cc(NS(C)(=O)=O)c4OC)c4ccccc34)n2)cc(C(=O)NCCCN2CCOCC2)c1` [85(f), 3-[[4-[[4-[[5-tert-Butyl-3-(methanesulfonamido)-2-methoxyphenyl]-carbamoylamino]-1-naphthyl]oxy]pyrimidin-2-yl]amino]-5-methoxy-N-(3-morpholinopropyl)-benzamide], the IC50 was determined as 0.7 nM.
The result for `C#Cc1cc(Nc2nccc(Oc3ccc(NC(=O)Nc4cc(C(C)(C)C)cc(C(N)=O)c4OC)c4ccccc34)n2)cc(C(=O)NCCN2CCOCC2)c1` [85(g), 5-tert-Butyl-3-[[4-[2-[3-ethynyl-5-(2-morpholinoethylcarbamoyl)anilino]-pyrimidin-4-yl]oxy-1-naphthyl]carbamoylamino]-2-methoxy-benzamide] reads 1 nM.
For `COc1cc(Nc2cc(Oc3ccc(NC(=O)Nc4cc(C(C)(C)C)cc(NS(C)(=O)=O)c4OC)c4ccccc34)ccn2)cc(C(=O)NCCN2CCSCC2)c1` [85(i), 3-[[4-[[4-[[5-tert-Butyl-3-(methanesulfonamido)-2-methoxyphenyl]-carbamoylamino]-1-naphthyl]oxy]-2-pyridyl]amino]-5-methoxy-N-(2-thiomorpholinoethyl)-benzamide] the value was 1.5 nM; for `COc1cc(Nc2cc(Oc3ccc(NC(=O)Nc4cc(C(C)(C)C)cc(NS(C)(=O)=O)c4OC)c4ccccc34)ccn2)cc(C(=O)NCCN2CC[S+]([O-])CC2)c1` [85(j), 3-[[4-[[4-[[5-tert-Butyl-3-(methanesulfonamido)-2-methoxyphenyl]-carbamoylamino]-1-naphthyl]oxy]-2-pyridyl]amino]-5-methoxy-N-[2-(1-oxo-1,4-thiazinan-4-yl)ethyl]benzamide], 2.1 nM; for `COc1cc(Nc2cc(Oc3ccc(NC(=O)Nc4cc(C(C)(C)C)cc(NS(C)(=O)=O)c4OC)c4ccccc34)ccn2)cc(C(=O)NCCN2CCOCC2(C)C)c1` [85(l), 3-[[4-[[4-[[5-tert-Butyl-3-(methanesulfonamido)-2-methoxyphenyl]-carbamoylamino]-1-naphthyl]oxy]-2-pyridyl]amino]-N-[2-(3,3-dimethylmorpholin-4-yl)ethyl]-5-methoxybenzamide], 2.8 nM.
As to `COc1cc(Nc2cc(Oc3ccc(NC(=O)Nc4cc(C(C)(C)C)cc(NS(C)(=O)=O)c4OC)c4ccccc34)ccn2)cc(C(=O)NCCN2CCCN(C)CC2)c1` [85(p), 3-[[4-[[4-[[5-tert-Butyl-3-(methanesulfonamido)-2-methoxyphenyl]-carbamoylamino]-1-naphthyl]oxy]-2-pyridyl]amino]-5-methoxy-N-[2-(4-methyl-1,4-diazepan-1-yl)ethyl]benzamide], the IC50 was found to be 7.1 nM.
